Calls of active or inactive are those of the source. The calls are words filed in the database; no cut-off is given here.
What was measured:
[1] = molecular target: T1, Protein cereblon/Tyrosine-protein kinase BTK (Homo sapiens, UniProt Q06187+Q96SW2); assay: PROTAC activity at CRBN/BTK in human JeKo-1 cells assessed as BTK degradation up to 100 nM incubated for 24 hrs by Western blot analysis; format: cell-based
Target sequence in this assay (Q06187 2-659 limits assumed): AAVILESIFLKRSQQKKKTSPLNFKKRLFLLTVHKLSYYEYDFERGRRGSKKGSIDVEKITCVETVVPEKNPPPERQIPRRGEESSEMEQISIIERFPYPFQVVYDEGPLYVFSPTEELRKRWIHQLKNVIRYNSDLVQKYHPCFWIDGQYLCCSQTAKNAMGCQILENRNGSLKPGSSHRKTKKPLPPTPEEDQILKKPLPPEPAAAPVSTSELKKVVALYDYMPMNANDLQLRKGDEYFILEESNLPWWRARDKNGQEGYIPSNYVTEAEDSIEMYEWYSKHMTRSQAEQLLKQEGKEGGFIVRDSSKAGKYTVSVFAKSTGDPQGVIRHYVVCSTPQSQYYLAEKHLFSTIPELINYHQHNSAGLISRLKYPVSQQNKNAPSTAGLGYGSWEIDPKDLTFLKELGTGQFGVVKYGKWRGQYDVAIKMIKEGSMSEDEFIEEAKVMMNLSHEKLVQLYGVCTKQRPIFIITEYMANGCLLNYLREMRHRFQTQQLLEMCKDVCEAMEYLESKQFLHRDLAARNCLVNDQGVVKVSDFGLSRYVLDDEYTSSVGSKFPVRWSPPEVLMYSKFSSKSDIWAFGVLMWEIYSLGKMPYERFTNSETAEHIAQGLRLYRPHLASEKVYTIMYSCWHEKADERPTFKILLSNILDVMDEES
Target sequence in this assay (Q96SW2 whole entry partner): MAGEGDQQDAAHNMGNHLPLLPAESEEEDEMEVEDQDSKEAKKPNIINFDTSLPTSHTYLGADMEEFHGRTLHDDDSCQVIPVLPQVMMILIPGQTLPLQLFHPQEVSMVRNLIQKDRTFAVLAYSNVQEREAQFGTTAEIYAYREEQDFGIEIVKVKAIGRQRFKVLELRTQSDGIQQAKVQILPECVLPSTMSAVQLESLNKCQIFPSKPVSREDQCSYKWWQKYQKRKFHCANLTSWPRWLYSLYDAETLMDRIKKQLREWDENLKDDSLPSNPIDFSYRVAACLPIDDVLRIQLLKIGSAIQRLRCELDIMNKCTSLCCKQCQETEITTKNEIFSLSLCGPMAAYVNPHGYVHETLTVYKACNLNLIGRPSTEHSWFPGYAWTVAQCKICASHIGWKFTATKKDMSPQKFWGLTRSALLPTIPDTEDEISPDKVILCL

[2] = molecular target: T1, Protein cereblon/Tyrosine-protein kinase BTK; assay: PROTAC activity at CRBN/BTK in human JeKo-1 cells assessed as BTK degradation at 30 nM incubated for 24 hrs by Western blot analysis relative to control; format: cell-based
Target sequence in this assay (Q06187 2-659 limits assumed): as the sequence (Q06187 2-659 limits assumed) above
Target sequence in this assay (Q96SW2 whole entry partner): as the sequence (Q96SW2 whole entry partner) above

[3] = molecular target: T1, Protein cereblon/Tyrosine-protein kinase BTK; assay: PROTAC activity at CRBN/BTK in human JeKo-1 cells assessed as BTK degradation at 100 nM incubated for 24 hrs by Western blot analysis relative to control; format: cell-based
Target sequence in this assay (Q06187 2-659 limits assumed): as the sequence (Q06187 2-659 limits assumed) above
Target sequence in this assay (Q96SW2 whole entry partner): as the sequence (Q96SW2 whole entry partner) above

[4] = molecular target: T1, Protein cereblon/Tyrosine-protein kinase BTK; assay: PROTAC activity at CRBN/BTK in human JeKo-1 cells assessed as BTK degradation at 10 nM incubated for 24 hrs by Western blot analysis relative to control; format: cell-based
Target sequence in this assay (Q06187 2-659 limits assumed): as the sequence (Q06187 2-659 limits assumed) above
Target sequence in this assay (Q96SW2 whole entry partner): as the sequence (Q96SW2 whole entry partner) above

[5] = Cytotoxicity against human TMD8 cells harboring wild-type BTK assessed as inhibition of cell viability incubated for 5 days by CCK8 assay; format: functional, cell-based; details: TMD8, 120 h
[6] = Cytotoxicity against human TMD8 cells harboring BTK C481S mutant assessed as inhibition of cell viability incubated for 5 days by CCK8 assay; format: functional, cell-based; details: TMD8, 120 h
[7] = Microsomal stability in human liver microsomes assessed as intrinsic clearance in liver measured up to 60 mins in presence of NADPH by LC-MS/MS analysis; format: ADME, Microsome; details: read-out: CLH
[8] = Microsomal stability in human liver microsomes assessed as compound remaining measured up to 60 mins in presence of NADPH by LC-MS/MS analysis; format: ADME, Microsome; details: read-out: Stability
[9] = Microsomal stability in human liver microsomes assessed as intrinsic clearance in microsomes measured up to 60 mins in presence of NADPH by LC-MS/MS analysis; format: ADME, Microsome; details: read-out: CLH
[10] = Microsomal stability in human liver microsomes assessed as half life measured up to 60 mins in presence of NADPH by LC-MS/MS analysis; format: ADME, Microsome
[11] = molecular target: T1, Protein cereblon/Tyrosine-protein kinase BTK; assay: PROTAC activity at CRBN/BTK in human JeKo-1 cells assessed as BTK degradation incubated for 24 hrs by Western blot analysis; format: cell-based
Target sequence in this assay (Q06187 whole entry): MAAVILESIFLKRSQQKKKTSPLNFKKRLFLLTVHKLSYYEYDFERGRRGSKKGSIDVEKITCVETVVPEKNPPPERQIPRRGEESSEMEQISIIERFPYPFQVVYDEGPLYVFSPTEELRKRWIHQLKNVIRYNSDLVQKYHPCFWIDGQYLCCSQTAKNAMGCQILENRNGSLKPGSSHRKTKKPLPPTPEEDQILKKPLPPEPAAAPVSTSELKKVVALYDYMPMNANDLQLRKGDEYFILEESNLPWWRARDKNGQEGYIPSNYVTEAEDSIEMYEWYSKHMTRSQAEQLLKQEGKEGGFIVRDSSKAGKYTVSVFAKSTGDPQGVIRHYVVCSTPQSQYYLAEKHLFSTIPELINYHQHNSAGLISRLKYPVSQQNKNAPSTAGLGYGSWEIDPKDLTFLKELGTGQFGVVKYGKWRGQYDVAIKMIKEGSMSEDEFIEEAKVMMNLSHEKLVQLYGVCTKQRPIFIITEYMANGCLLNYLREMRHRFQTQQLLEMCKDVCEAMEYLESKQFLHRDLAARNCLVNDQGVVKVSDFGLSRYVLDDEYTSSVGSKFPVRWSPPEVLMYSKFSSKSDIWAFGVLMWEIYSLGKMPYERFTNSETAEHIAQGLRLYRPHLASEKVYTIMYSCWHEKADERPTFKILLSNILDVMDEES
Target sequence in this assay (Q96SW2 whole entry): as the sequence (Q96SW2 whole entry partner) above

[12] = Microsomal stability in human liver microsomes assessed as compound remaining measured up to 60 mins by LC-MS/MS analysis; format: ADME, Microsome; details: read-out: Stability

SMILES | Activity [2] | Activity [3] | Activity [4] | also measured
CN1C(=O)CCC(c2ccc(N3CCC(CCN4CCC(CC(=O)N[C@H]5CC[C@H](Nc6ncnc7[nH]cc(C(=O)c8ccc(Oc9ccccc9)cc8)c67)C5)CC4)CC3)nc2)C1=O (stereo partly drawn) |  |  |  | Activity [1]: inactive
O=C1CCC(N2Cc3cc(N4CCC(CCN5CCC(CC(=O)N[C@H]6CC[C@@H](Nc7ncnc8[nH]cc(C(=O)c9ccc(Oc%10ccccc%10)cc9)c78)CC6)CC5)CC4)c(F)cc3C2=O)C(=O)N1 (stereo partly drawn) | 95% | 96% | 87% | 
O=C1CCC(N2Cc3cc(N4CCC(CCN5CCC(CC(=O)N[C@@H]6CCC[C@H](Nc7ncnc8[nH]cc(C(=O)c9ccc(Oc%10ccccc%10)cc9Cl)c78)C6)CC5)CC4)c(F)cc3C2=O)C(=O)N1 (stereo partly drawn) | 46% | 54% | 41% | 
NC(=O)c1ncc(N2CCCCC2)nc1Nc1ccc(C2CCN(C[C@@H]3CCN(c4ccc5c(c4)C(=O)N(C4CCC(=O)NC4=O)C5=O)C3)CC2)cc1 (stereo partly drawn) |  |  |  | IC50 [5]: 8.8 nM; IC50 [6]: 18 nM
O=C1CCC(c2ccc(N3CCC(CN4CCC(CC(=O)N[C@H]5CC[C@@H](Nc6ncnc7[nH]cc(C(=O)c8ccc(Oc9ccccc9)cc8)c67)CC5)CC4)CC3)cc2)C(=O)N1 (stereo partly drawn) | 51% | 74% | 50% | 
Cc1ccc(C(=O)N2CCC(CCN3CCC(CC(=O)N[C@H]4CC[C@@H](Nc5ncnc6[nH]cc(C(=O)c7ccc(Oc8ccccc8)cc7Cl)c56)CC4)CC3)CC2)cc1N1CCC(=O)NC1=O | 60% | 81% | 26% | 
O=C1CCC(c2ccc(N3CCC(CCN4CCN(CC(=O)N[C@H]5CC[C@@H](Nc6ncnc7[nH]cc(C(=O)c8ccc(Oc9ccccc9)cc8)c67)CC5)CC4)CC3)cc2)C(=O)N1 (stereo partly drawn) | 36% | 53% | 15% | 
O=C1CCC(N2Cc3cc(N4CCC(CCN5CCC(CC(=O)N[C@H]6CC[C@@H](Nc7ncnc8[nH]cc(C(=O)c9ccc(Oc%10ccccc%10)cc9Cl)c78)CC6)CC5)CC4)c(F)cc3C2=O)C(=O)N1 (stereo partly drawn) | 92% | 89% | 83% | IC50 [5]: 23.9 nM; IC50 [6]: 27.4 nM
O=C1CCC(N2Cc3cc(N4CCC(CCN5CCC(CC(=O)N[C@@H]6CC[C@H](Nc7ncnc8[nH]cc(C(=O)c9ccc(Oc%10ccccc%10)cc9Cl)c78)C6)CC5)CC4)c(F)cc3C2=O)C(=O)N1 (stereo partly drawn) | 91% | 88% | 77% | 
O=C1CCC(c2ccc(N3CC4(CCN(CC(=O)N[C@H]5CC[C@@H](Nc6ncnc7[nH]cc(C(=O)c8ccc(Oc9ccccc9)cc8)c67)CC5)CC4)C3)cc2)C(=O)N1 (stereo partly drawn) | 4% | 23% |  | 
O=C1CCC(N2Cc3cc(N4CCC(CCN5CCC(CC(=O)NC6CCN(c7ncnc8[nH]cc(C(=O)c9ccc(Oc%10ccccc%10)cc9Cl)c78)CC6)CC5)CC4)c(F)cc3C2=O)C(=O)N1 (stereo not drawn) | 76% | 88% | 56% | 
O=C1CCC(c2ccc(N3CCC(CN4CCC(CC(=O)N[C@H]5CC[C@@H](Nc6ncnc7[nH]cc(C(=O)c8ccc(Oc9ccccc9)cc8)c67)CC5)CC4)C3)cc2)C(=O)N1 (stereo partly drawn) | 11% | 6% | 4% | 
O=C1CCC(N2Cc3cc(N4CCC(CCN5CCC(CC(=O)N[C@H]6CC[C@H](Nc7ncnc8[nH]cc(C(=O)c9ccc(Oc%10ccccc%10)cc9Cl)c78)CC6)CC5)CC4)c(F)cc3C2=O)C(=O)N1 (stereo partly drawn) | 98% | 98% | 80% | 
O=C1CCC(c2ccc(N3CCC(CCN4CCC(CC(=O)N[C@H]5CC[C@@H](Nc6ncnc7[nH]cc(C(=O)c8ccc(Oc9ccccc9)cc8)c67)CC5)CC4)CC3)cc2)C(=O)N1 (stereo partly drawn) | 79% | 69% | 69% | 
O=C(c1ccc(Oc2ccccc2)cc1Cl)c1c[nH]c2ncnc(N[C@@H]3CC[C@@H](CO)OC3)c12 [NEMTABRUTINIB] |  |  |  | IC50 [5]: 335 nM; IC50 [6]: 594 nM
O=C1CCC(N2Cc3cc(N4CCC(CCN5CCC(CC(=O)N[C@H]6CC[C@@H](Nc7ncnc8[nH]cc(C(=O)c9ccc(F)cc9Cl)c78)CC6)CC5)CC4)c(F)cc3C2=O)C(=O)N1 (stereo partly drawn) | 7% | 23% | 11% | 
CN1C(=O)CCC(c2ccc(N3CCC(CCN4CCC(CC(=O)N[C@H]5CC[C@H](Nc6ncnc7[nH]cc(C(=O)c8ccc(Oc9ccccc9)cc8)c67)C5)CC4)CC3)cc2)C1=O (stereo partly drawn) |  |  |  | Activity [1]: inactive
O=C1CCC(N2Cc3cc(N4CCC(CCN5CCC(CC(=O)N[C@H]6CC[C@H](Nc7ncnc8[nH]cc(C(=O)c9ccc(Oc%10ccccc%10)cc9Cl)c78)C6)CC5)CC4)c(F)cc3C2=O)C(=O)N1 (stereo partly drawn) | 94% | 98% | 88% | 
O=C1CCC(N2Cc3cc(N4CCC(CCN5CCC(CC(=O)N6CCC(Nc7ncnc8[nH]cc(C(=O)c9ccc(Oc%10ccccc%10)cc9Cl)c78)CC6)CC5)CC4)c(F)cc3C2=O)C(=O)N1 (stereo not drawn) | 90% | 94% | 80% | 
O=C1CCC(N2Cc3cc(N4CCC(CCN5CCC(CC(=O)N[C@H]6CC[C@@H](Nc7ncnc8[nH]cc(C(=O)c9ccccc9Cl)c78)CC6)CC5)CC4)c(F)cc3C2=O)C(=O)N1 (stereo partly drawn) | 32% | 36% | 18% | 
O=C1CCC(c2ccc(N3CCC(CCN4CCC(CCN[C@H]5CC[C@@H](Nc6ncnc7[nH]cc(C(=O)c8ccc(Oc9ccccc9)cc8)c67)CC5)CC4)CC3)cc2)C(=O)N1 (stereo partly drawn) | 15% | 39% |  | 
O=C1CCN(c2cccc(C(=O)N3CCC(CCN4CCC(CC(=O)N[C@H]5CC[C@@H](Nc6ncnc7[nH]cc(C(=O)c8ccc(Oc9ccccc9)cc8Cl)c67)CC5)CC4)CC3)c2)C(=O)N1 |  | 24% |  | 
O=C1CCC(NC(=O)c2ccc(N3CCC(CCN4CCC(CC(=O)N[C@H]5CC[C@@H](Nc6ncnc7[nH]cc(C(=O)c8ccc(Oc9ccccc9)cc8Cl)c67)CC5)CC4)CC3)cn2)C(=O)N1 (stereo partly drawn) | 54% | 73% | 4% | 
O=C1CCC(c2ccc(N3CCC(CCN4CCC(CC(=O)N[C@H]5CC[C@@H](Nc6ncnc7[nH]cc(C(=O)c8ccc(Oc9ccccc9)cc8Cl)c67)CC5)CC4)CC3)cc2)C(=O)N1 (stereo partly drawn) | 85% | 89% | 79% | 
O=C1CCC(n2ncc(N3CCC(CCN4CCC(CC(=O)N[C@H]5CC[C@@H](Nc6ncnc7[nH]cc(C(=O)c8ccc(Oc9ccccc9)cc8Cl)c67)CC5)CC4)CC3)c(Cl)c2=O)C(=O)N1 (stereo partly drawn) | 88% | 91% | 64% | 
O=C1CCN(c2ccc(C(=O)N3CCC(CCN4CCC(CC(=O)N[C@H]5CC[C@@H](Nc6ncnc7[nH]cc(C(=O)c8ccc(Oc9ccccc9)cc8Cl)c67)CC5)CC4)CC3)cc2)C(=O)N1 | 9% | 35% |  | 
O=C1CCC(c2ccc(N3CCC(CN4CCC(CC(=O)N[C@H]5CC[C@H](Nc6ncnc7[nH]cc(C(=O)c8ccc(Oc9ccccc9)cc8)c67)C5)CC4)CC3)cc2)C(=O)N1 (stereo partly drawn) | 85% | 88% | 69% | CLint scaled [7]: 14.2 mL/min/kg; remaining at 1 h [8]: 55.6%; microsomal CLint [9]: 15.8 µL/min/mg; half-life [10]: 1.47 h; DC50 [11]: 3.6 nM; remaining at 1 h [12]: 96.8%
O=C1CCC(c2cccc(N3CCC(CCN4CCC(CC(=O)N[C@H]5CC[C@@H](Nc6ncnc7[nH]cc(C(=O)c8ccc(Oc9ccccc9)cc8Cl)c67)CC5)CC4)CC3)c2)C(=O)N1 (stereo partly drawn) | 62% | 77% | 45% | 
O=C1CCC(N2Cc3cc(N4CCC(CCN5CCC(CC(=O)N6CCN(c7ncnc8[nH]cc(C(=O)c9ccc(Oc%10ccccc%10)cc9Cl)c78)CC6)CC5)CC4)c(F)cc3C2=O)C(=O)N1 (stereo not drawn) | 53% | 47% | 65% | 
O=C1CCC(c2ccc(N3CCC(CN4CCC(CC(=O)N[C@H]5CC[C@H](Nc6ncnc7[nH]cc(C(=O)c8ccc(Oc9ccccc9)cc8)c67)C5)CC4)CC3)nc2)C(=O)N1 (stereo partly drawn) | 91% | 93% | 84% | CLint scaled [7]: 18.2 mL/min/kg; remaining at 1 h [8]: 53.9%; microsomal CLint [9]: 20.3 µL/min/mg; half-life [10]: 1.13 h; DC50 [11]: 3.1 nM; remaining at 1 h [12]: 94.6%

— ChEMBL document CHEMBL6134821, “Design, synthesis, and biological evaluation of novel BTK-targeting proteolysis targeting chimeras (PROTACs) with enhanced pharmacokinetic properties” (Eur J Med Chem, 2025)
